Structures can show the parent of a compound that is named as a salt. Where two headings read alike, the source gives them in different places.
Legend:
[1] = biological target: T1, BIR3 domain of human XIAP (Homo sapiens, UniProt P98170); assay: XIAP in vitro competitive displacement binding assay (fluorescence polarization); settings: for IC50: plain number = IC50, average where more than one data point, read-out: Xiap IC50 or PI μM (IC50); for inhibition at 0.04 µM: 1 h, PI at 0.04 μM, read-out: Xiap IC50 or PI μM (PI)
T1 construct: BIR3 domain of human XIAP (residues 252-350) fused to a His-tag; His-tag (cleaved yes); made in house; host or cells: Escherichia coli

[2] = tested on: EVSA-T (human breast carcinoma); assay: Anti-proliferative activity, Alamar Blue assay, EVSA-T; type: cell-based
[3] = EVSA-T cells, 72 hours, Alamar Blue, hydrochloride, read-out: EVSA-T prolif
[4] = Homo sapiens, EVSA-T, read-out: EC50 in EVSA-T cell line assays
[5] = Homo sapiens, EVSA-T, 72 h, EVSA-T cells, 72 hours, Alamar Blue, read-out: EVSA-T prolif
[6] = EVSA-T cells, 72 hours, Alamar Blue, dihydrochloride, read-out: EVSA-T prolif

T1 sequence (P98170 252-350): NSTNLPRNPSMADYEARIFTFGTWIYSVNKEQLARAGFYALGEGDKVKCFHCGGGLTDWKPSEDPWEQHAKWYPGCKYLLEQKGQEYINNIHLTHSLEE

Structure (SMILES) | IC50 [1] [µM] | EC50 [2, 3] [nM] | EC50 [2, 4] [nM] | inhibition at 0.04 µM [1] [%] | EC50 [2, 5] [nM] | EC50 [2, 6] [nM]
C[C@@H]1CN(CC(=O)N2CC(C)(C)c3ncc(Cc4ccc(F)cc4)cc32)[C@@H](CN2CCCCC2C(F)(F)F)CN1 (single isomer, unassigned) [Example 24, 1-{6-[(4-Fluorophenyl)methyl]-3,3-dimethyl-1H,2H,3H-pyrrolo[3,2-b]pyridin-1-yl}-2-[(2R,5R)-5-methyl-2-{[2-([R or S]trifluoromethyl)piperidin-1-yl]methyl}piperazin-1-yl]ethan-1-one hydrochloride] | 0.13 | 13 | < 1000 | – | – | –
C[C@@H]1CN(CC(=O)N2CC(C)(C)c3ncc(Cc4ccc(F)cc4)cc32)[C@@H](CN2CCOCC2C(F)(F)F)CN1 (single isomer, unassigned) [Example 25, 1-{6-[(4-Fluorophenyl)methyl]-3,3-dimethyl-1H,2H,3H-pyrrolo[3,2-b]pyridin-1-yl}-2-[(2R,5R)-5-methyl-2-{[3-([R or S]trifluoromethyl)morpholin-4-yl]methyl}piperazin-1-yl]ethan-1-one hydrochloride] | 0.12 | 1.2 | < 1000 | – | – | –
C[C@@H]1CN(CC(=O)N2CC(C)(C)c3cnc(Cc4ccc(F)cc4F)cc32)[C@@H](CN2CCOC[C@]2(C)CO)CN1 (single isomer, unassigned) [Example 66, dihydrochloride] | – | – | < 1000 | 78 | 0.8 | –
C[C@@H]1CN(CC(=O)N2CC(C)(C)c3cnc(Cc4ccc(F)cc4F)cc32)[C@@H](CN2CCOC[C@@]2(C)CO)CN1 (single isomer, unassigned) [Example 67, dihydrochloride] | – | – | < 1000 | 65 | 3.7 | –
CCCC(F)(F)c1cc2c(cn1)C(C)(C)CN2C(=O)CN1C[C@@H](C)NC[C@@H]1CN1CCOC[C@@]1(C)CO (single isomer, unassigned) [Example 68, dihydrochloride] | – | – | < 1000 | 69 | 22 | –
CCCC(F)(F)c1cc2c(cn1)C(C)(C)CN2C(=O)CN1C[C@@H](C)NC[C@@H]1CN1CCOC[C@]1(C)CO (single isomer, unassigned) [Example 69, dihydrochloride] | – | – | < 1000 | 71 | 5.6 | –
CCCC(O)c1cnc2c(c1)N(C(=O)CN1C[C@@H](C)NC[C@@H]1CN1[C@H](C)COC[C@H]1C)CC2(C)C (single isomer, unassigned) [Example 101, 2-[(2R,5R)-2-{[(3R,5R)-3,5-Dimethylmorpholin-4-yl]methyl}-5-methylpiperazin-1-yl]-1-[6-(1-(R or S)-hydroxybutyl)-3,3-dimethyl-1H,2H,3H-pyrrolo[3,2-b]pyridin-1-yl]ethan-1-one dihydrochloride] | – | – | < 1000 | 47 | 31 | –
C[C@@H]1CN(CC(=O)N2CC(C)(C)c3ncc(C(O)c4cccc(F)c4)cc32)[C@@H](CN2[C@H](C)COC[C@H]2C)CN1 (single isomer, unassigned) [Example 105, 2-[(2R,5R)-2-{[(3R,5R)-3,5-Dimethylmorpholin-4-yl]methyl}-5-methylpiperazin-1-yl]-1-{6-[(R or S)-(3-fluorophenyl)-(hydroxy)methyl]-3,3-dimethyl-1H,2H,3H-pyrrolo[3,2-b]pyridin-1-yl}ethan-1-one dihydrochloride] | – | – | < 1000 | 60 | – | 35
C[C@@H]1CN(CC(=O)N2CC(C)(C)c3ncc(C(O)c4ccccc4F)cc32)[C@@H](CN2[C@H](C)COC[C@H]2C)CN1 (single isomer, unassigned) [Example 107, 2-[(2R,5R)-2-{[(3R,5R)-3,5-Dimethylmorpholin-4-yl]methyl}-5-methylpiperazin-1-yl]-1-{6-[(R or S)-(2-fluorophenyl)-(hydroxy)methyl]-3,3-dimethyl-1H,2H,3H-pyrrolo[3,2-b]pyridin-1-yl}ethan-1-one dihydrochloride] | – | – | < 1000 | 57 | – | 7.1
C[C@@H]1CN(CC(=O)N2CC(C)(C)c3ncc(C(O)c4cccc(F)c4F)cc32)[C@@H](CN2[C@H](C)COC[C@H]2C)CN1 (single isomer, unassigned) [Example 111, (R or S)-1-{6-[(2,3-Difluorophenyl)(hydroxy)meth-yl]-3,3-dimethyl-1H,2H,3H-pyrrolo[3,2-b]pyridin-1-yl}-2-[(2R,5R)-2-{[(3R,5R)-3,5-dimethylmorpholin-4-yl]methyl}-5-methylpiperazin-1-yl]ethan-1-one dihydrochloride] | – | – | < 1000 | 45 | 25 | –
C[C@@H]1CN(CC(=O)N2CC(C)(C)c3ncc(C(O)c4cc(F)ccc4F)cc32)[C@@H](CN2[C@H](C)COC[C@H]2C)CN1 (single isomer, unassigned) [Example 116, 1-{(R or S)-6-[(2,5-Difluorophenyl)(hydroxy)meth-yl]-3,3-dimethyl-1H,2H,3H-pyrrolo[3,2-b]pyridin-1-yl}-2-[(2R,5R)-2-{[(3R,5R)-3,5-dimethylmorpholin-4-yl]methyl}-5-methylpiperazin-1-yl]ethan-1-one dihydrochloride] | – | – | – | 47 | – | 55
C[C@@H]1CN(CC(=O)N2CC(C)(C)c3ncc(C(O)c4c(F)cccc4F)cc32)[C@@H](CN2[C@H](C)COC[C@H]2C)CN1 (single isomer, unassigned) [Example 117, 1-{(R or S)-6-[(2,6-Difluorophenyl)(hydroxy)meth-yl]-3,3-dimethyl-1H,2H,3H-pyrrolo[3,2-]pyridin-1-yl}-2-[(2R,5R)-2-{[(3R,5R)-3,5-dimethylmorpholin-4-yl]methyl}-5-methylpiperazin-1-yl]ethan-1-one dihydrochloride] | – | – | – | 41 | – | –
COC[C@@H]1COCCN1C[C@H]1CN[C@H](C)CN1CC(=O)N1CC(C)(C)c2ncc(Cc3ccc(F)cc3)cc21 [Example 1, 1-{6-[(4-Fluorophenyl)methyl]-3,3-dimethyl-1H,2H,3H-pyrrolo[3,2-b]pyridin-1-yl}-2-[(2R,5R)-2-{[(3R)-3-(methoxymethyl)morpholin-4-yl]methyl}-5-methylpiperazin-1-yl]ethan-1-one dihydrochloride] | – | – | < 1000 | 35 | 2.9 | –
C[C@@H]1CN(CC(=O)N2CC(C)(C)c3ncc(Cc4ccc(F)cc4)cc32)[C@@H](CN2CCOC[C@H]2CO)CN1 [Example 2, 1-{6-[(4-Fluorophenyl)methyl]-3,3-dimethyl-1H,2H,3H-pyrrolo[3,2-b]pyridin-1-yl}-2-[(2R,5R)-2-{[(3R)-3-(hydroxymethyl)morpholin-4-yl]methyl}-5-methylpiperazin-1-yl]ethan-1-one dihydrochloride] | – | – | < 1000 | 40 | 1.7 | –
C[C@@H]1CN(CC(=O)N2CC(C)(C)c3ncc(Cc4ccc(F)cc4)cc32)[C@@H](CN2CCCC(F)(F)C2)CN1 [Example 3, 2-[(2R,5R)-2-[(3,3-Difluoropiperidin-1-yl)methyl]-5-methylpiperazin-1-yl]-1-{6-[(4-fluorophenyl)methyl]-3,3-dimethyl-1H,2H,3H-pyrrolo[3,2-b]pyridin-1-yl}ethan-1-one dihydrochloride] | – | – | < 1000 | 37 | 6.8 | –
C[C@@H]1CN(CC(=O)N2CC(C)(C)c3ncc(Cc4ccc(F)cc4)cc32)[C@@H](CN2C[C@@H]3C[C@H]2CO3)CN1 [Example 7, 1-{6-[(4-Fluorophenyl)methyl]-3,3-dimethyl-1H,2H,3H-pyrrolo[3,2-b]pyridin-1-yl}-2-[(2R,5R)-5-methyl-2-[(1S,4S)-2-oxa-5-azabicyclo[2.2.1]heptan-5-ylmethyl]piperazin-1-yl]ethan-1-one dihydrochloride] | 0.16 | – | < 1000 | – | 6.2 | –
C[C@@H]1CN(CC(=O)N2CC(C)(C)c3ncc(Cc4ccc(F)cc4)cc32)[C@@H](CN2CCC[C@H]2CO)CN1 [Example 12, 1-{6-[(4-Fluorophenyl)methyl]-3,3-dimethyl-1H,2H,3H-pyrrolo[3,2-b]pyridin-1-yl}-2-[(2R,5R)-2-{[(2S)-2-(hydroxymethyl)pyrrolidin-1-yl]methyl}-5-methylpiperazin-1-yl]ethan-1-one dihydrochloride] | 0.15 | – | < 1000 | – | 1.6 | –
C[C@@H]1CN(CC(=O)N2CC(C)(C)c3ncc(Cc4ccc(F)cc4)cc32)[C@@H](CN2CC3CCC(C2)O3)CN1 [Example 18, 1-{6-[(4-Fluorophenyl)methyl]-3,3-dimethyl-1H,2H,3H-pyrrolo[3,2-b]pyridin-1-yl}-2-[(2R,5R)-5-methyl-2-{8-oxa-3-azabicyclo[3.2.1]octan-3-ylmethyl}piperazin-1-yl]ethan-1-one dihydrochloride] | – | – | < 1000 | 35 | 1.8 | –
C[C@@H]1CN(CC(=O)N2CC(C)(C)c3ncc(Cc4ccc(F)cc4)cc32)[C@@H](CN2CCOC[C@H]2CF)CN1 [Example 19, 2-[(2R,5R)-2-{[(3S)-3-(Fluoromethyl)morpholin-4-yl]methyl}-5-methylpiperazin-1-yl]-1-{6-[(4-fluorophenyl)methyl]-3,3-dimethyl-1H,2H,3H-pyrrolo[3,2-b]pyridin-1-yl}ethan-1-one dihydrochloride] | – | – | < 1000 | 43 | 0.65 | –
C[C@@H]1CN(CC(=O)N2CC(C)(C)c3ncc(Cc4ccc(F)cc4)cc32)[C@@H](CN2CC3CC2CO3)CN1 (stereo partly drawn) [Example 20, 1-{6-[(4-Fluorophenyl)methyl]-3,3-dimethyl-1H,2H,3H-pyrrolo[3,2-b]pyridin-1-yl}-2-[(2R,5R)-5-methyl-2-{2-oxa-5-azabicyclo[2.2.1]heptan-5-ylmethyl}piperazin-1-yl]ethan-1-one dihydrochloride] | 0.14 | – | < 1000 | – | 2.8 | –

From patent US9980973B2, “Bicyclic heterocycle compounds and their uses in therapy” (ASTEX THERAPEUTICS LIMITED, priority 2012, dated 2018)
